# Source: PMC6988309, “Preclinical efficacy for a novel tyrosine kinase inhibitor, ArQule 531 against acute myeloid leukemia” (Journal of Hematology & Oncology, 2020)
# Columns and labels:
# [1] = test system: MOLM-13 disseminated AML xenograft; experiment: MOLM-13 disseminated xenograft, single agent study (NSG mice); assay type: in vivo
# Experimental: All experiments were conducted after approval of The Ohio State University Institutional Animal Care and Use Committee. Mice were randomized and enrolled for daily oral gavage (Q.D.P.O) treatment of vehicle or 50 mg/kg ARQ 531. Mice were treated until reaching early removal criteria (ERC) defined as 20% weight loss, lethargy, hind limb paralysis, moribund, anorexia, dehydration, hunched posture, severe diarrhea, breathing difficulties, or any abnormal neurological symptoms.
# A total of 10,000 luciferase expressing MOLM-13 cells were engrafted via tail vein injection in NSG mice (The Jackson Laboratory, Bar Harbor, ME) for the single agent ARQ 531 study or NCG mice (Charles River Laboratories, Wilmington, MA) for the ARQ 531 + venetoclax (ARQ + Ven) combination study. For the first single agent ARQ 531 study, mice were treated 7 days post-engraftment. Due to the aggressiveness of the MOLM-13 model, mice were treated 4 days post-engraftment in the ARQ + Ven combination study. In both studies, mice were treated daily via oral gavage with vehicle (10% absolute alcohol, 10% Cremophor-EL, 80% saline) or 50 mg/kg ARQ 531, and 75 mg/kg venetoclax ± 50 mg/kg ARQ 531 for the combination study. Weekly in vivo imaging was performed using In Vivo Imaging System (IVIS) imager (PerkinElmer, Waltham, MA).
# Kaplan–Meier survival curve in the MOLM-13 disseminated AML xenograft model. […]
# MV4-11 = experiment: MTS proliferation assay 72 h, MV4-11; assay type: cell-based; details: Homo sapiens, MV4-11, read-out: Estimated absolute µM IC50 (95% CI), 4-parameter logistic model
# Experimental: A total of 5000–30,000 cells from the lines above were treated in a 96-well plate for 72 h. CellTiter 96 Aqueous MTS reagent (Promega, Madison, WI) was added to cells followed by a 3-h incubation at 37 °C, 5% CO2. The absorbance was measured at 490 nm using DTX 880 plate reader and the half maximal inhibitory concentration (IC50) was calculated using GraphPad Prism 7 (GraphPad Software, La Jolla, CA) and SAS/STAT software (SAS v9.4 for Windows, SAS Institute, Inc., Cary, NC).
# MCL1 = experiment: Immunoblot of MCL1 modulation in MOLM-13; assay type: cell-based, human; details: MOLM-13, serum starved, 20 h treatment
# Experimental: Fig. 6 Immunoblot analysis for MCL1 modulation in MOLM-13 FLT3-ITD cell line (representative of two independent blots). Cells were serum starved and treated for 20 h with ARQ 531 alone or in combination with venetoclax. […] GAPDH used as loading control. Band densitometry is done using ImageJ and quantified relative to GAPDH and DMSO treatment (a). In vitro analysis for additive or synergistic activity for ARQ 531 and venetoclax combination. Representative of three MTS proliferation assays. The MOLM-13 cell line was treated with increasing doses of ARQ 531 or venetoclax single agents or a combination of both for 72 h. Three biological replicates were analyzed using Combenefit software implementing the mathematical models for Highest Single Agent (HSA), Loewe, and Bliss (b). […]
# [2] = test system: phosphorylated SYK (tyrosine 525/526); experiment: Immunoblot of phospho-SYK Tyr525/526; assay type: cell-based, human; details: MOLM-13, MV4-11, and OCI-AML3, 10-min treatment
# Experimental: Cell lines were serum starved overnight followed by a 10-min treatment. Cells were washed in ice-cold PBS then lysed in 1X Cell Lysis Buffer (CST) supplemented with proteinase and phosphatase inhibitors cocktail (Roche). Pierce BCA Protein Assay was used to quantify the protein lysates (Thermo Fisher Scientific, Waltham, MA). For Immunoblotting, 15–25 μg of protein lysate was prepared in 2X or 4X Laemmeli’s sample buffer (Bio-Rad Laboratories, Hercules, CA) and heated for 5 min at 100 °C. Samples were separated on 8% sodium dodecyl sulfate polyacrylamide gel and transferred onto nitrocellulose membrane (Bio-Rad Laboratories, Hercules, CA). The membranes were blocked for 1 h in Blocker BLOTTO Blocking Buffer (Thermo Fisher Scientific, Waltham, MA) or 5% non-fat milk followed by overnight incubation at 4 °C with primary antibody followed by HRP-conjugated secondary antibodies and visualized with chemiluminescent Pierce ECL Substrate (Thermo Fisher Scientific, Waltham, MA) on X-ray films.
# Fig. 3 ARQ 531 modulates AML pro-survival kinases. Immunoblot analysis for MOLM-13, MV4-11, and OCI-AML3 AML cell lines (representative of 2-3 independent blots). […] Twenty to 25 μg of total protein lysate was loaded per lane. GAPDH, HSP90, or β-Actin were used as loading controls. a, b Modulation of phosphorylated SFK and downstream targets in FLT3-ITD cell lines MOLM-13 and MV-11, respectively. c, d Modulation of phosphorylated SYK and BTK in all three cell lines
# Ba/F3 FLT3-D835H = experiment: MTT proliferation assay 72 h, Ba/F3 FLT3-D835H; assay type: cell-based, murine; details: Mus musculus, BaF3, read-out: Estimated absolute µM IC50 and 95% CI
# Experimental: For the MOLM-13 resistant and the Ba/F3-FLT3-ITD/TKD cell lines, cells were treated for 72 h and cell viability was evaluated using MTT assay (Roche Diagnostics. Mannheim. Germany) according to the manufacturer’s instructions.
structure (smiles),measurement,setting,value
O=C(c1ccc(Oc2ccccc2)cc1Cl)c1c[nH]c2ncnc(N[C@@H]3CC[C@@H](CO)OC3)c12 [ARQ 531],median survival,"[1]; 50 mg/kg Q.D.P.O from 7 days post-engraftment until ERC, vehicle 21 days",23 days
same,median survival advantage vs vehicle,"[1]; 50 mg/kg Q.D.P.O, log-rank p value = 0.002",2 days
same,IC50,MV4-11,1.45 µM
same,MCL1 protein level,MCL1,MCL1 downregulation
same,effect on phosphorylated SYK (tyrosine 525/526),[2],inhibited the phosphorylated levels of SYK
same,IC50,Ba/F3 FLT3-D835H,1.74 µM
